Measurements as given in patent US9150530B2, “Esters of 4, 9-dihydroxy-naphtho [2, 3-b] furans for disease therapies” (Zhoushan Haizhongzhou Xinsheng Pharmaceuticals Co., Ltd., priority 2011, dated 2015).

Assays:
[1] = Human plasma incubation, HPLC analysis of degradation products; assay type: in vitro ADME; settings: 20 μM in human plasma, 37° C., 2 hours
Protocol: The compounds of formula I were incubated in human plasma at 37° C. for 2 hours, and then the mixtures were treated with acetonitrile to remove protein and the resulting supernatants were analyzed by HPLC (FIG. 2). […] Without wishing to be bound by a particular theory, it is believed that, although not detected due to instability in a protein-free environment, the direct hydrolysis product of a compound of formula I, 4,9-dihydroxy-naphtho[2,3-b]furan, and its partially oxidized product semihydroquinone (shown in scheme 6) co-exist in vivo and play important biological roles.
HPLC column: Waters Sunfire C18, 250×4.60 mm 5 micron; Mobile phase: buffer A, 90% 5 mM potassium phosphate buffer, pH 6.8, 10% acetonitrile; buffer B, 15% 5 mM potassium phosphate buffer, pH 6.8, 85% acetonitrile; Detector: Waters 2998 Photodiode Array Detector.
Gradient B: 0-3 min, 50% buffer B, 3-5 min, 50%-100% buffer B, 5-18 min, 100% buffer B, 18-22 min, 100%-50% buffer B, 22-25 min, […]; flow rate, 1 ml/min. Analysis of the 4,9-dihydroxy-naphtho[2,3-b]furan compounds (FIG. 1)
10 mM of a compound of formula I or its analog in DMSO (however, compound VI was in DMF) was diluted with human plasma to 20 μM, and the resulting mixtures were incubated at 37° C. for 2 hours. To plasma sample, 9 times volume of acetonitrile was added. The resulting mixtures were vortexed and incubated in dry ice for 30 minutes or in −20° C. freezer for 3 hours, then centrifuged, and supernatant was used for HPLC analysis using gradient B.

MGC80-3 = assay: Cell viability determination (MTT), MGC80-3; assay type: cell-based; settings: Homo sapiens, MGC-803, MGC80-3, stomach cancer, 48 hour incubation, read-out: Drug concentrations for 50% cell viability (IC50)
From the text: (§1) Cell Culture: A549, DLD1, SW480, LOVO, HT-29, Hela, U-20S, MES-SA, SK-MEL-28, Panc-1, DU-145, CNE, U251, Eca-109, MGC80-3, QGY-7701, BEL-7404, PLC/PRF/5, Huh-7, and SGC-7901 cells were maintained in Dulbecco's Modified Eagle Medium (DMEM) (imported from Invitrogen, Carlsbad, Calif., USA) supplemented with 10% fetal bovine serum (FBS) (Si Ji Qing, Hangzhou, China) and 1% penicillin/streptomycin/amphotericin B (imported from Invitrogen, Carlsbad, Calif., USA).
(§2) Cell Viability Determination: Popular MTT method (Archives of Biochemistry and Biophysics, 1993, 303: 474-482) was used to screen the in vitro effects of the invented drugs. Briefly, 5000 to 10000 cells were inoculated per well in a 96-well plate. After overnight incubation, drug was added to the wells at final concentration of 10 μM, […], 2.5 μM, 1.25 μM, or 1 μM, 0.75 μM, 0.5 μM and 0.25 μM in complete culture medium. Each dose level covered 4 equivalent wells. After 48 hour incubation, one tenth volume of 5 mg/mL MTT (thiazolyl blue tetrazolium bromide, Sigma-Aldrich) stock solution was added, and incubation was continued for 2 hours. Then medium was removed and 100 μL of isopropanol solution comprising 86% isopropanol, 4% aqueous 1 N HCl and 10% aqueous SDS solution (10% in concentration) was added. The absorbance of each well at 570 nm wavelength was measured by a micro-plate reader after gentle shaking for 20 minutes. Drug concentrations of 50% cell viability (IC50) were calculated by LOGIT method.

U-20S = assay: Cell viability determination (MTT), U-20S; assay type: cell-based; settings: osteosarcoma, 48 hour incubation, read-out: Drug concentrations for 50% cell viability (IC50)
From the text: as §1, §2

DU-145 = assay: Cell viability determination (MTT), DU-145; assay type: cell-based; settings: Homo sapiens, DU-145, prostate cancer, 48 hour incubation, read-out: Drug concentrations for 50% cell viability (IC50)
From the text: as §1, §2

DLD1 = assay: Cell viability determination (MTT), DLD1; assay type: cell-based; settings: Homo sapiens, DLD-1, DLD1, colorectal cancer, 48 hour incubation, read-out: Drug concentrations for 50% cell viability (IC50)
From the text: as §1, §2

A549 = assay: Cell viability determination (MTT), A549; assay type: cell-based; settings: Homo sapiens, A549, lung cancer, 48 hour incubation, read-out: Drug concentrations for 50% cell viability (IC50)
From the text: as §1, §2

CNE = assay: Cell viability determination (MTT), CNE; assay type: cell-based; settings: Homo sapiens, nasopharyngeal cancer, 48 hour incubation, read-out: Drug concentrations for 50% cell viability (IC50)
From the text: as §1, §2

QGY-7701 = assay: Cell viability determination (MTT), QGY-7701; assay type: cell-based; settings: QGY7701, QGY-7701, liver cancer, 48 hour incubation, read-out: Drug concentrations for 50% cell viability (IC50)
From the text: as §1, §2

U251 = assay: Cell viability determination (MTT), U251; assay type: cell-based; settings: Homo sapiens, U-251, U251, glioma, 48 hour incubation, read-out: Drug concentrations for 50% cell viability (IC50)
From the text: as §1, §2

SMILES: CC(=O)Oc1c2ccccc2c(OC(=O)CNC(=O)OC(C)(C)C)c2oc(C(C)=O)cc12 [compound IV, 2-acetyl-4-acetoxy-9-[(tert-butoxycarbonyl)amino]acetoxy-naphtho[2,3-b]furan]
- Degradation / detectable products after incubation in human plasma [1]: the detectable products were compound XIII and partially degraded products
- IC50 (MGC80-3): 1220 nM
- IC50 (U-20S): 750 to 1000 nM
- IC50 (DU-145): 250 to 500 nM
- IC50 (DLD1): 300 nM
- IC50 (A549): 600 nM
- IC50 (CNE): 1330 nM
- IC50 (QGY-7701): 3.26 µM
- IC50 (U251): 1140 nM
